Where a name gives a salt, the structure may show the parent alone. Read-outs that look alike come from different tables or passages of the source.
What was measured:
Format in all cases: biochemical
Lectin Pathway = assay: Lectin pathway activation assay in human serum (mannan-coated ELISA, C3c detection); conditions: 1% human serum
human α-thrombin = human α-thrombin (Homo sapiens (Human), UniProt P00734); assay: Enzymatic assay for thrombin (Boc-VPR-AMC substrate)
MASP-2 (CCP1-CCP2-SP) = MASP-2 (CCP1-CCP2-SP) (Homo sapiens (Human), UniProt O00187); assay: biochemical
mMASP-2 = mMASP-2 (Mus musculus (Mouse), UniProt Q91WP0); assay: Enzymatic inhibition of mMASP-2
[1] = selectivity for MASP-2 inhibition versus thrombin
[2] = MASP-2 inhibition versus thrombin

Chain of MASP-2 (CCP1-CCP2-SP) (O00187 445-686): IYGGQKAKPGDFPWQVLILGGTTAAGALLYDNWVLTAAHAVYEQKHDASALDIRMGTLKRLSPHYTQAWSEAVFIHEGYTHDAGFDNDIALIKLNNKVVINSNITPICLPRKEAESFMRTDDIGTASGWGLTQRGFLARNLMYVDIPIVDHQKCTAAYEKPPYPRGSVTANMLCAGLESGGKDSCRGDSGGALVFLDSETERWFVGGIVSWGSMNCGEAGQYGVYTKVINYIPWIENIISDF
Chain of mMASP-2 (Q91WP0 20-685): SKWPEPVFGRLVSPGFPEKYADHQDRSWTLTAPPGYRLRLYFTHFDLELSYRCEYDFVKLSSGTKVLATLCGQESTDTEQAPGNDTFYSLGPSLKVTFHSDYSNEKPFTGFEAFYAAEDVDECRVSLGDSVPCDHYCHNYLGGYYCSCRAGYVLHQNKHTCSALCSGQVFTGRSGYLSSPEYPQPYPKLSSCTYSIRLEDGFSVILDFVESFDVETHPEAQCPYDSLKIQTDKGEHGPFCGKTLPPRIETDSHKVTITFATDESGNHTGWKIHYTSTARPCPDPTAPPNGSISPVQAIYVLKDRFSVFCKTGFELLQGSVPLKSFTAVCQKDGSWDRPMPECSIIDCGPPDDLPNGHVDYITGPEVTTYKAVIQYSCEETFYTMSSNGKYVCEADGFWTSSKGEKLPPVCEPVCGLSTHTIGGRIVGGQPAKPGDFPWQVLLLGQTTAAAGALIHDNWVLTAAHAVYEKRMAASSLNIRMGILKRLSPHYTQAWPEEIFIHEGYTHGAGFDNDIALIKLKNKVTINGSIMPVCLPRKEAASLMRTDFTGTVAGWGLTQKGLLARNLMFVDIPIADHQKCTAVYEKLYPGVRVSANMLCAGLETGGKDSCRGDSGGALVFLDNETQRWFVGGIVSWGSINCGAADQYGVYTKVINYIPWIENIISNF

SMILES	IC50 (Lectin Pathway)	Ki (human α-thrombin; read-out: Thrombin Ki)	Ki (MASP-2 (CCP1-CCP2-SP); read-out: MASP-2 Ki)	Ki (mMASP-2; read-out: mMASP-2 Ki)	other results
Cc1nc(N)ccc1CNC(=O)[C@H](C)NC(=O)[C@H]1C[C@H](Cc2cccc3cnccc23)CN1 [compound 1343, (2R,4S)—N—((S)-1-(((6-Amino-2-methylpyridin-3-yl)methyl)amino)-1-oxopropan-2-yl)-4-(isoquinolin-5-ylmethyl)pyrrolidine-2-carboxamide Di-trifluoroacetate salt]	50 to 500 nM	–	–	–	–
N=C(N)c1ccc(CNC(=O)CNC(=O)[C@H](NCC(=O)O)C2CCCCC2)cc1 [compound 1054]	5000 to 50000 nM	–	–	–	–
Nc1nccc2cc(CNC(=O)[C@@H]3CCN3C(=O)[C@H](N)C3CCCCC3)ccc12 [compound 1041, (S)-1-((R)-2-Amino-2-cyclohexylacetyl)-N-((1-aminoisoquinolin-6-yl)methyl)azetidine-2-carboxamide dihydrochloride]	5000 to 50000 nM	< 0.5 µM	–	–	–
C[C@H](NC(=O)[C@H](N)C1Cc2ccccc2C1)C(=O)NCc1ccc2nc(N)n(C)c2c1 [compound 1171]	> 50000 nM	> 25 µM	–	–	–
C[C@H](NC(=O)[C@H]1Cc2ccccc2CN1)C(=O)NCc1ccc2c(N)nccc2c1 [compound 1053]	500 to 5000 nM	–	–	–	–
CCNC(=O)COc1ccc(Cl)cc1CNC(=O)[C@H](C)NC(=O)[C@H](N)CCc1ccccc1 [compound 1137, (R)-2-Amino-N—((S)-1-((5-chloro-2-(2-(ethylamino)-2-oxoethoxy)benzyl)amino)-1-oxopropan-2-yl)-4-phenylbutanamide]	> 50000 nM	–	–	–	–
Cc1cccc(C2CCNC(C(=O)N[C@@H](C)C(=O)NCc3ccc(C(=N)N)cc3)C2)c1 (stereo partly drawn) [compound 1098]	< 50 nM	–	< 0.5 µM	–	–
N=C(N)c1ccc(CNC(=O)[C@@H]2CCN2C(=O)[C@@H](N)C2CCCCC2)cc1 [compound 1018]	> 50000 nM	–	–	–	–
C[C@H](NC(=O)[C@@H](CCc1ccccc1)NCCCc1ccc(O)cc1)C(=O)NCc1ccc(C(=N)N)cc1 [compound 1145]	50 to 500 nM	–	< 0.5 µM	–	–
C[C@H](NC(=O)[C@H](NCC(=O)O)C1Cc2ccccc2C1)C(=O)NCc1ccc(C(=N)N)cc1 [compound 1123]	500 to 5000 nM	–	–	–	–
C[C@H](NC(=O)[C@H]1C[C@@H](c2ccccc2)CCN1)C(=O)NCc1cc(Cl)ccc1O [compound 1078]	500 to 5000 nM	–	< 0.5 µM	–	–
Cc1nc(N)ccc1CNC(=O)[C@H](C)NC(=O)[C@H]1C[C@H](Cc2ccc(N3CCCC3=O)cc2)CN1 [compound 1391, (2R,4S)—N—((S)-1-(((6-Amino-2-methylpyridin-3-yl)methyl)amino)-1-oxopropan-2-yl)-4-(4-(2-oxopyrrolidin-1-yl)benzyl)pyrrolidine-2-carboxamide Di-trifluoroacetate salt]	–	> 25 µM	< 0.5 µM	< 500 nM	MASP-2 vs. thrombin selectivity (MASP-2 (CCP1-CCP2-SP); [1]): **** (≥100-fold)
C[C@H](NC(=O)[C@H]1C[C@H](c2ccccc2)CN1)C(=O)NCc1cnc2[nH]nc(Cl)c2c1 [compound 1384, (2R,4R)—N—((S)-1-(((3-Chloro-1H-pyrazolo[3,4-b]pyridin-5-yl)methyl)amino)-1-oxopropan-2-yl)-4-phenylpyrrolidine-2-carboxamide Dihydrochloride]	–	> 25 µM	–	> 25000 nM	Ki (MASP-2 (CCP1-CCP2-SP)): 10 to 25 µM; MASP-2 vs. thrombin selectivity (MASP-2 (CCP1-CCP2-SP); [1]): * (≥1.0 to <5.0-fold)
Cc1nc(N)ccc1CNC(=O)[C@H](C)NC(=O)[C@H]1C[C@@H](c2ccccc2)CCN1CCC(=O)O [compound 1411, 3-((2R,4S)-2-(((S)-1-(((6-Amino-2-methylpyridin-3-yl)methyl)amino)-1-oxopropan-2-yl)carbamoyl)-4-phenylpiperidin-1-yl)propanoic acid Trifluoroacetate salt]	–	> 25 µM	< 0.5 µM	< 500 nM	–
C[C@H](NC(=O)[C@@H](CCc1ccccc1)NCc1ccc[nH]1)C(=O)NCc1ccc(C(=N)N)cc1 [compound 1128]	–	< 0.5 µM	< 0.5 µM	< 500 nM	MASP-2 vs. thrombin selectivity (MASP-2 (CCP1-CCP2-SP); [2]): * (1.0 to 5.0-fold)
Cc1nc(N)ccc1CNC(=O)[C@H](C)NC(=O)[C@H]1C[C@H](Cc2ccc(-c3ccc(F)cc3CN)cc2)CN1 [compound 1403, (2R,4S)—N—((S)-1-(((6-Amino-2-methylpyridin-3-yl)methyl)amino)-1-oxopropan-2-yl)-4-((2′-(aminomethyl)-4′-fluoro-[1,1′-biphenyl]-4-yl)methyl)pyrrolidine-2-carboxamide]	–	> 25 µM	< 0.5 µM	500 to 2500 nM	–
C[C@H](NC(=O)[C@H]1C[C@H](Cc2ccc3ccccc3c2)CN1)C(=O)NCc1cc(Cl)ccc1-n1cnnn1 [compound 1385, (2R,4S)—N—((S)-1-((5-chloro-2-(1H-tetrazol-1-yl)benzyl)amino)-1-oxopropan-2-yl)-4-(naphthalen-2-ylmethyl)pyrrolidine-2-carboxamide Trifluoroacetate salt]	–	< 0.5 µM	< 0.5 µM	< 500 nM	MASP-2 vs. thrombin selectivity (MASP-2 (CCP1-CCP2-SP); [1]): ** (≥5.0 to <25-fold)
C[C@H](NC(=O)[C@H]1C[C@H](Cc2ccccc2)CN1)C(=O)NCc1cc(Cl)cc(Cl)c1O [compound 1448, (2R,4S)-4-benzyl-N-((S)-1-((3,5-dichloro-2-hydroxybenzyl)amino)-1-oxopropan-2-yl)pyrrolidine-2-carboxamide, hydrochloride]	–	> 25 µM	< 0.5 µM	2500 to 10000 nM	MASP-2 vs. thrombin selectivity (MASP-2 (CCP1-CCP2-SP); [1]): **** (≥100-fold)
C[C@H](NC(=O)[C@H]1C[C@H](c2ccccc2)CN1)C(=O)NCc1ccc(C(=N)NC(=O)OCC(Cl)(Cl)Cl)cc1 [compound 1288, 2,2,2-Trichloroethyl (imino(4-(((S)-2-((2R,4R)-4-phenylpyrrolidine-2-carboxamido)propanamido)methyl)phenyl)methyl)carbamate]	–	> 25 µM	–	–	Ki (MASP-2 (CCP1-CCP2-SP); MASP-2 Ki (μM)): 2.5 to 10 µM; Ki (mMASP-2): 2500 to 10000 nM
Cc1nc(N)ccc1CNC(=O)[C@H](C)NC(=O)[C@H]1C[C@H](Cc2ccc3nonc3c2)CN1 [compound 1470, (2R,4S)—N—((S)-1-(((6-Amino-2-methylpyridin-3-yl)methyl)amino)-1-oxopropan-2-yl)-4-(benzo[c][1,2,5]oxadiazol-5-ylmethyl)pyrrolidine-2-carboxamide Di-trifluoroacetate salt]	–	–	< 0.5 µM	< 500 nM	MASP-2 vs. thrombin selectivity (MASP-2 (CCP1-CCP2-SP); [1]): **** (≥100-fold); Ki (human α-thrombin; Thrombin Ki (μM)): 2.5 to 10 µM
Cc1nc(N)ccc1CNC(=O)[C@H](C)NC(=O)[C@H](N)CCc1ccccc1 [compound 1245, (R)-2-Amino-N—((S)-1-(((6-amino-2-methylpyridin-3-yl)methyl)amino)-1-oxopropan-2-yl)-4-phenylbutanamide]	–	–	< 0.5 µM	10000 to 25000 nM	MASP-2 vs. thrombin selectivity (MASP-2 (CCP1-CCP2-SP); [1]): **** (≥100-fold); Ki (human α-thrombin; Thrombin Ki (μM)): 10 to 25 µM
CCN1C[C@@H](Cc2ccc(Cl)c(Br)c2)C[C@@H]1C(=O)N[C@@H](C)C(=O)NCc1ccc(N)nc1C [compound 1464, (2R,4S)—N—((S)-1-(((6-Amino-2-methylpyridin-3-yl)methyl)amino)-1-oxopropan-2-yl)-4-(3-bromo-4-chlorobenzyl)-1-ethylpyrrolidine-2-carboxamide]	–	> 25 µM	< 0.5 µM	< 500 nM	–
C[C@H](NC(=O)[C@H]1C[C@H](c2ccccc2)CN1)C(=O)NCc1cc(Cl)c[nH]c1=O [compound 1301, (2R,4R)—N—((S)-1-(((5-Chloro-2-oxo-1,2-dihydropyridin-3-yl)methyl)amino)-1-oxopropan-2-yl)-4-phenylpyrrolidine-2-carboxamide Hydrochloride]	–	> 25 µM	–	> 25000 nM	Ki (MASP-2 (CCP1-CCP2-SP)): 2.5 to 10 µM
C[C@H](NC(=O)[C@H]1C[C@@H](c2ccccc2)CCN1)C(=O)NCc1ccccc1 [compound 1271, (2R,4S)—N—((S)-1-(benzylamino)-1-oxopropan-2-yl)-4-phenylpiperidine-2-carboxamide]	–	> 25 µM	–	> 25000 nM	Ki (MASP-2 (CCP1-CCP2-SP)): 2.5 to 10 µM
C[C@H](NC(=O)[C@H]1C[C@H](c2ccccc2)CN1)C(=O)NCc1ccn2ccnc2c1 [compound 1366, (2R,4R)—N—((S)-1-((Imidazo[1,2-a]pyridin-7-ylmethyl)amino)-1-oxopropan-2-yl)-4-phenylpyrrolidine-2-carboxamide Dihydrochloride]	–	> 25 µM	–	2500 to 10000 nM	Ki (MASP-2 (CCP1-CCP2-SP)): 2.5 to 10 µM
C[C@H](NC(=O)[C@@H](CCc1ccccc1)NCc1ccc(N2CCOCC2)cc1)C(=O)NCc1ccc(C(=N)N)cc1 [compound 1149]	–	< 0.5 µM	< 0.5 µM	< 500 nM	MASP-2 vs. thrombin selectivity (MASP-2 (CCP1-CCP2-SP); [2]): ** (5.0 to 25-fold)
CN[C@H](CCc1ccccc1)C(=O)N[C@@H](C)C(=O)NCc1ccc(C(=N)N)cc1 [compound 1044]	–	< 0.5 µM	< 0.5 µM	< 500 nM	MASP-2 vs. thrombin selectivity (MASP-2 (CCP1-CCP2-SP); [2]): ** (5.0 to 25-fold)
Cc1cccc([C@H]2CN[C@@H](C(=O)N[C@@H](C)C(=O)NCc3ccc(C(=N)N)cc3)C2)c1 [compound 1247, (2R,4S)—N—((S)-1-((4-Carbamimidoylbenzyl)amino)-1-oxopropan-2-yl)-4-(m-tolyl)pyrrolidine-2-carboxamide]	–	–	< 0.5 µM	< 500 nM	MASP-2 vs. thrombin selectivity (MASP-2 (CCP1-CCP2-SP); [1]): *** (≥25 to <100-fold); Ki (human α-thrombin; Thrombin Ki (μM)): 0.5 to 2.5 µM
Cc1cc(Cl)cc(CNC(=O)[C@H](C)NC(=O)[C@H]2C[C@H](c3ccccc3)CN2)c1 [compound 1333, (2R,4R)—N—((S)-1-((3-Chloro-5-methylbenzyl)amino)-1-oxopropan-2-yl)-4-phenylpyrrolidine-2-carboxamide Hydrochloride]	–	> 25 µM	–	10000 to 25000 nM	Ki (MASP-2 (CCP1-CCP2-SP)): 2.5 to 10 µM
C[C@H](NC(=O)[C@H]1C[C@@H](c2ccccc2)CCN1)C(=O)NCc1cc(Cl)ccc1-n1cnnn1 [compound 1426, (2R,4S)—N—((S)-1-((5-Chloro-2-(1H-tetrazol-1-yl)benzyl)amino)-1-oxopropan-2-yl)-4-phenylpiperidine-2-carboxamide Trifluoroacetate]	–	–	< 0.5 µM	500 to 2500 nM	MASP-2 vs. thrombin selectivity (MASP-2 (CCP1-CCP2-SP); [1]): *** (≥25 to <100-fold); Ki (human α-thrombin; Thrombin Ki (μM)): 0.5 to 2.5 µM

Source: patent publication US11584714B2 (priority 2018, dated 2023)
